Patent EP2812315B1, “PYRROLIC DERIVATIVES, PROCESSES FOR PREPARING THE SAME AND THEIR USES AS A DRUG” (Universite Joseph Fourier, priority 2012, dated 2013)
≈ marks a conversion by molar mass, not a printed value.

What was measured:
Format in all cases: cell-based
[1] = tested on: Pseudomonas aeruginosa CIP 5933; assay: MIC determination, microdilution method (CLSI M07-A8); conditions: CIP5933; Pseudomonas aeruginosa CIP 5933; 18 hours incubation; read-out: MIC
Protocol: (§1) The microdilution method recommended by the Clinical and Laboratory Standard Institute [M07-A8, Vol.29, N°2] was used. The activity of pyrrolic compounds was tested against 29 bacterial strains belonging to 17 different species and 12 different genera (Staphylococcus, Streptococcus, Enterococcus, […], Bacillus, Haetttophilus, Escherichia, Klebsiella, Enterobacter, Serratia, Pseudomonas, and Acinetobacter). Bacterial inocula were prepared in Mueller Hinton broth (MH2, bioMérieux, Marcy L'Etoile, France), supplemented with 10% sheep blood for fastidious species (i.e., Streptococcus pneumoniae and Haemophilus influenzae). They were dispensed in 96 well microtiter plates (5 x 10^5 CFU/mL of final inoculum). Pyrrolic compounds were added to the wells as to obtain two-fold serial concentrations (0.25-64 mg/L). Plates were incubated at 37°C, in 5% CO2 enriched atmosphere for fastidious species only. MICs were read after 18 hours incubation of cultures, and corresponded to the minimum pyrrolic compound concentration that allowed complete visual growth inhibition of bacteria. Drug-free cultures served as growth controls. Cultures receiving gentamicine, ciprofloxacine or cefotaxime served as positive controls.

[2] = tested on: Staphylococcus aureus ATCC 25923; assay: as above; conditions: ATCC25923; Staphylococcus aureus ATCC 25923; 5 x 10^5 CFU/mL; 18 hours incubation; read-out: MIC
Protocol: as §1

[3] = tested on: Escherichia coli ATCC 25922; assay: as above; conditions: ATCC25922; Escherichia coli ATCC 25922; 18 hours incubation; read-out: MIC
Protocol: as §1

[4] = tested on: Klebsiella pneumoniae ATCC 35657; assay: as above; conditions: ATCC35657; Klebsiella pneumoniae ATCC 35657; 18 hours incubation; read-out: MIC
Protocol: as §1

[5] = tested on: Staphylococcus epidermidis ATCC 12228; assay: as above; conditions: ATCC12228; Staphylococcus epidermidis ATCC 12228; 5 x 10^5 CFU/mL; 18 hours incubation; read-out: MIC
Protocol: as §1

[6] = tested on: Acinetobacter baumanii ATCC 19606; assay: as above; conditions: Acinetobacter baumannii, ATCC19606; Acinetobacter baumanii ATCC 19606; 18 hours incubation; read-out: MIC
Protocol: as §1

[7] = tested on: Serratia marcescens CIP 103551; assay: as above; conditions: CIP103551; Serratia marcescens CIP 103551; 18 hours incubation; read-out: MIC
Protocol: as §1

[8] = tested on: Enterobacter cloacae ATCC13047; assay: as above; conditions: Enterobacter cloacae ATCC13047; 18 hours incubation; read-out: MIC
Protocol: as §1

[9] = tested on: Staphylococcus aureus ATCC 29213; assay: as above; conditions: ATCC29213; Staphylococcus aureus ATCC 29213; 5 x 10^5 CFU/mL; 18 hours incubation; read-out: MIC
Protocol: as §1

[10] = tested on: Staphylococcus haemolyticus (CHUG-Shae1); assay: Other MIC determination, microdilution method (CLSI M07-A9) with modifications; conditions: 10^6 CFU/ml, 18h at 37 °C
Protocol: (§2) The microdilution method recommended by the Clinical and Laboratory Standard Institute [M07-A9, Vol.32, N°2] was used with the following modifications.
(§3) Bacterial inocula were prepared in Mueller Hinton broth (MH2, BioMérieux, Marcy L'Etoile, France). They were dispensed in 96 well microtiter plates (10^6 CFU/ml of final inoculum, 192 µL per well).
(§4) To avoid cross-contaminations in microtiter plates, one row was left blank between each strain tested. Microplates were incubated for 18h at 37 °C in ambient air. Then MICs were read visually and, in case of visual reading difficulties, confirmed using a spectrophotometer at a wavelength of 630 nm (BioTek® EL808 Absorbance Microplate Reader). MICs corresponded to the minimum pyrrolic compound concentrations that allowed complete visual growth inhibition of bacteria. Drug-free cultures served as growth controls.
(§5) We used four Staphylococcus aureus strains. Two reference strains were provided by the French reference center for Staphylococcus spp. (Lyon, France), including one methicillin-susceptible (MSSA 476) and one methicillin-resistant (MRSA 252) S. aureus strains. The two remaining S. aureus strains were purchased from the CRBIP (Centre de Ressources Biologiques de l'Institut Pasteur): a vancomycin-intermediate strain (ATCC 106414) and a S. aureus strain (SA-1199B) resistant to fluoroquinolones due to overexpression of the NorA multidrug efflux pump. Coagulase-negative Staphylococcus strains included three reference strains purchased from CRBIP: a methicillin-susceptible S. epidermidis strain (ATCC 12228), a methicillin-resistant S. epidermidis strain (ATCC 49461), and a methicillin-susceptible S. sciuri strain (ATCC 29061). We also used 37 clinical strains belonging to the following coagulase-negative Staphylococcus species: S. arlettae (two strains), S. capitis (nine strains), S. epidermidis (one strain), S. haemolyticus (six strains), S. hominis (eight strains), S. lugdunensis (one strain), S. massiliensis (one strain), S. pettenkoferi (two strains), S. saprophyticus (two strains), S. simulans (one strain), and S. warneri (four strains) . Identification of the clinical strains was first obtained using VITEK® 2 System (Biomérieux) and confirmed by amplification and sequencing of the tuf gene (Reference: Bergeron, M., O. Dauwalder, M. Gouy, A.-M. Freydiere, M. Bes, H. Meugnier, Y. Benito, J. Etienne, G. Lina, F. Vandenesch, and S. Boisset. Species identification of staphylococci by amplification and sequencing of the tuf gene compared to the gap gene and by matrix-assisted laser desorption ionization time-of-flight mass spectrometry, Eur. J. Clin. Microbial. Infect. Dis. 2011, 30, 343-354).
(§6) The activity of pyrrolic compounds 3c, 3e-3j and 3n was first tested against 12 Staphylococcus sp. strains, including 7 reference strains and five clinical strains. The MICs of these compounds against Staphylococcus aureus ATCC 106414 (VISA) and Staphylococcus epidermidis ATCC 12228 are in accordance with those described in Tables I and II.

[11] = tested on: Staphylococcus warneri (CHUG-Swar1); assay: as above; conditions: 10^6 CFU/ml, 18h at 37 °C
Protocol: as §2, §3, §4, §5, §6

[12] = tested on: Staphylococcus pettenkoferi (CHUG-Spet1); assay: as above; conditions: 10^6 CFU/ml, 18h at 37 °C
Protocol: as §2, §3, §4, §5, §6

[13] = tested on: Staphylococcus aureus (MRSA 252); assay: as above; conditions: 10^6 CFU/ml, 18h at 37 °C
Protocol: as §2, §3, §4, §5, §6

[14] = tested on: Staphylococcus epidermidis (ATCC 12228); assay: as above; conditions: ATCC12228, 10^6 CFU/ml, 18h at 37 °C
Protocol: as §2, §3, §4, §5, §6

[15] = tested on: Staphylococcus epidermidis (ATCC 49461); assay: as above; conditions: ATCC49461, 10^6 CFU/ml, 18h at 37 °C
Protocol: as §2, §3, §4, §5, §6

Row | SMILES | MIC [1] [µg/mL] | MIC [2] [µg/mL] | MIC [3] [µg/mL] | MIC [4] [µg/mL] | MIC [5] [µg/mL] | MIC [6] [µg/mL] | MIC [7] [µg/mL] | MIC [8] [µg/mL] | MIC [9] [µg/mL] | MIC [10] [µg/mL] | MIC [11] [µg/mL] | MIC [12] [µg/mL] | MIC [13] [µg/mL] | MIC [14] [µg/mL] | MIC [15] [µg/mL]
1 | CC(=O)c1c(C)[nH]c(C(c2ccc(Cl)cc2)c2[nH]c(C)c(C(C)=O)c2C)c1C [3c] | > 128 | 4 (≈ 10.1 µM) | > 128 | > 128 | > 128 | > 128 | > 128 | > 128 | 2 (≈ 5.04 µM) | 16 (≈ 40.3 µM) | 8 (≈ 20.2 µM) | > 32 | 8 (≈ 20.2 µM) | > 32 | > 32
2 | CC(=O)c1c(C)[nH]c(C(c2cc3ccccc3o2)c2[nH]c(C)c(C(C)=O)c2C)c1C [3e] | > 128 | 4 (≈ 9.94 µM) | > 128 | > 128 | > 128 | > 128 | > 128 | > 128 | 2 (≈ 4.97 µM) | > 32 | 8 (≈ 19.9 µM) | > 32 | 8 (≈ 19.9 µM) | > 32 | > 32
3 | CC(=O)c1c(C)[nH]c(C(c2cc3ccccc3s2)c2[nH]c(C)c(C(C)=O)c2C)c1C [3f] | > 128 | 2 (≈ 4.78 µM) | > 128 | > 128 | > 128 | > 128 | > 128 | > 128 | 2 (≈ 4.78 µM) | > 32 | 4 (≈ 9.56 µM) | > 32 | 4 (≈ 9.56 µM) | > 32 | > 32
4 | CC(=O)c1c(C)[nH]c(C(c2ccc(F)cc2)c2[nH]c(C)c(C(C)=O)c2C)c1C [3g] | > 32 | 2 (≈ 5.26 µM) | > 32 | > 32 | > 128 | > 32 | > 32 | > 32 | 1 (≈ 2.63 µM) | 16 (≈ 42.1 µM) | 8 (≈ 21 µM) | > 32 | 8 (≈ 21 µM) | > 32 | > 32
5 | CC(=O)c1c(C)[nH]c(C(c2[nH]c(C)c(C(C)=O)c2C)c2cccc3ccccc23)c1C [3h] | > 128 | 1 (≈ 2.42 µM) | > 128 | > 128 | > 128 | > 128 | > 128 | > 128 | 1 (≈ 2.42 µM) | 4 (≈ 9.7 µM) | 2 (≈ 4.85 µM) | > 32 | 2 (≈ 4.85 µM) | > 32 | > 32
6 | CC(=O)c1c(C)[nH]c(C(c2[nH]c(C)c(C(C)=O)c2C)c2csc3ccccc23)c1C [3i] | > 128 | 1 (≈ 2.39 µM) | > 128 | > 128 | > 128 | > 128 | > 128 | > 128 | 0.5 (≈ 1.19 µM) | 4 (≈ 9.56 µM) | 1 (≈ 2.39 µM) | > 32 | 1 (≈ 2.39 µM) | > 32 | > 32
7 | COC(=O)c1cccc(C(c2[nH]c(C)c(C(C)=O)c2C)c2[nH]c(C)c(C(C)=O)c2C)c1 [3j, Methyl-3-[bis(4-acetyl-3,5-dimethyl-1H-pyrrol-2-yl)methyl]benzoate] | > 32 | 4 (≈ 9.51 µM) | > 32 | > 32 | > 128 | > 32 | > 32 | > 32 | 2 (≈ 4.76 µM) | 16 (≈ 38 µM) | 16 (≈ 38 µM) | > 32 | 8 (≈ 19 µM) | > 32 | > 32
8 | CC(=O)c1c(C)[nH]c(C(c2[nH]c(C)c(C(C)=O)c2C)c2csc3ccc(Br)cc23)c1C [3n] | – | – | – | – | – | – | – | – | – | 1 (≈ 2.01 µM) | 0.25 (≈ 0.503 µM) | > 32 | 0.125 (≈ 0.251 µM) | > 32 | > 32
